Measurements from the CheMixHub ionic liquid set.

Test: xn = mol fraction of the nth substance listed

C[N+](C)(C)CCC[N+]1(C)CCCCC1.N#C[N-]C#N.N#C[N-]C#N + CCO
viscosity [mPa·s], 100 kPa
Details | x1 = 0.0999 | x1 = 0.2001 | x1 = 0.3002 | x1 = 0.3999 | x1 = 0.5002 | x1 = 0.6001 | x1 = 0.7003 | x1 = 0.7998 | x1 = 0.8995 | x1 = 1
293.15 K | 6.82 | 19.7 | 47.6 | 115 | 280 | 596 | 1088 | 1716 | 2737 | 4503
303.15 K | 5.39 | 15 | 33 | 73.3 | 164 | 330 | 545 | 830 | 1240 | 1837
313.15 K | 4.38 | 11.6 | 24.1 | 49.6 | 106 | 211 | 310 | 461 | 624 | 860
323.15 K | 3.68 | 9.19 | 18.1 | 35.2 | 70.5 | 132 | 192 | 267 | 360 | 460
333.15 K | 3.18 | 7.55 | 14.1 | 26.2 | 50.7 | 85.9 | 126 | 171 | 219 | 270

CCOC(C)(C)C + CCO + CCOS(=O)(=O)[O-].CC[n+]1ccn(C)c1
298.15 K, 101 kPa
Details | viscosity [mPa·s]
x2 = 0.1248, x1 = 0.0174 | 63
x2 = 0.1973, x1 = 0.0324 | 46.3
x2 = 0.3162, x1 = 0.029 | 30.74
x2 = 0.395, x1 = 0.0475 | 21.09
x2 = 0.4866, x1 = 0.0465 | 14.2
x2 = 0.5653, x1 = 0.0501 | 9.77
x2 = 0.6539, x1 = 0.3132 | 0.878
x2 = 0.6567, x1 = 0.0845 | 5.13
x2 = 0.6872, x1 = 0.0848 | 4.39
x2 = 0.6916, x1 = 0.2368 | 1.352
x2 = 0.6923, x1 = 0.035 | 5.65
x2 = 0.7064, x1 = 0.1236 | 3.102
x2 = 0.7089, x1 = 0.2556 | 0.974
x2 = 0.7162, x1 = 0.1736 | 1.937
x2 = 0.7254, x1 = 0.0338 | 4.79
x2 = 0.7605, x1 = 0.0564 | 3.565
x2 = 0.7622, x1 = 0.1589 | 1.568
x2 = 0.7999, x1 = 0.077 | 2.401
x2 = 0.8182, x1 = 0.1407 | 1.208
x2 = 0.841, x1 = 0.072 | 1.86
x2 = 0.902, x1 = 0.0527 | 1.428

CCCCCCCCCCCCCCCC[N+](C)(C)C.[Br-] + CCO + O
298.2 K, 101.3 kPa
Details | electrical conductivity [S/m]
x1 = 1.26e-06, x2 = 0.05064 | 0.00062
x1 = 3.09e-06, x2 = 0.05064 | 0.00117
x1 = 5.13e-06, x2 = 0.05064 | 0.00178
x1 = 7.19e-06, x2 = 0.05064 | 0.00236
x1 = 9.2e-06, x2 = 0.05064 | 0.00294
x1 = 1.12e-05, x2 = 0.05064 | 0.0035
x1 = 1.326e-05, x2 = 0.05064 | 0.00406
x1 = 1.526e-05, x2 = 0.05064 | 0.00458
x1 = 1.726e-05, x2 = 0.05064 | 0.00501
x1 = 1.932e-05, x2 = 0.05064 | 0.0055
x1 = 2.135e-05, x2 = 0.05064 | 0.00592
x1 = 2.333e-05, x2 = 0.05064 | 0.00629
x1 = 2.537e-05, x2 = 0.05064 | 0.00663
x1 = 2.735e-05, x2 = 0.05064 | 0.00698
x1 = 2.922e-05, x2 = 0.05064 | 0.00728
x1 = 3.097e-05, x2 = 0.05064 | 0.00754
x1 = 3.328e-05, x2 = 0.05064 | 0.00788

CCCCCCCCCCCCOS(=O)(=O)[O-].[Na+] + CCO + O
298 K, 100 kPa, frequency 0.001 MHz
Details | electrical conductivity [S/m]
x2 = 0.02563, x3 = 0.9741 | 0.0809
x2 = 0.06861, x3 = 0.9309 | 0.103
x2 = 0.06862, x3 = 0.9311 | 0.0828

CCCCCCCCn1cc[n+](C)c1.[Cl-] + CCO + O
298.15 K, 101 kPa
Details | viscosity [mPa·s]
x2 = 0.0467, x3 = 0.9348 | 2.514
x2 = 0.0558, x3 = 0.9143 | 3.908
x2 = 0.0679, x3 = 0.8854 | 7.008
x2 = 0.0766, x3 = 0.8576 | 10.5
x2 = 0.0826, x3 = 0.91 | 2.007
x2 = 0.0929, x3 = 0.8165 | 13.64
x2 = 0.0962, x3 = 0.8862 | 2.748
x2 = 0.0984, x3 = 0.1869 | 2330
x2 = 0.1218, x3 = 0.7443 | 18.9
x2 = 0.1329, x3 = 0.8601 | 2.881
x2 = 0.1594, x3 = 0.6721 | 21.9
x2 = 0.1807, x3 = 0.7375 | 7.695
x2 = 0.1867, x3 = 0.7875 | 3.207
x2 = 0.1968, x3 = 0.1665 | 855
x2 = 0.2008, x3 = 0.4721 | 68.1
x2 = 0.2008, x3 = 0.7927 | 2.822
x2 = 0.2235, x3 = 0.6582 | 10.37
x2 = 0.2254, x3 = 0.7596 | 2.603
x2 = 0.2604, x3 = 0.7162 | 3.164
x2 = 0.2624, x3 = 0.3089 | 119.1
x2 = 0.2733, x3 = 0.7208 | 2.591
x2 = 0.2777, x3 = 0.4267 | 41.41
x2 = 0.2833, x3 = 0.1486 | 402
x2 = 0.2958, x3 = 0.669 | 3.56
x2 = 0.3057, x3 = 0.6808 | 2.662
x2 = 0.3069, x3 = 0.6239 | 5.009
x2 = 0.3218, x3 = 0.5748 | 7.072
x2 = 0.3263, x3 = 0.5386 | 9.47
x2 = 0.3335, x3 = 0.6189 | 3.791
x2 = 0.3386, x3 = 0.6405 | 2.729
x2 = 0.3599, x3 = 0.268 | 58.73
x2 = 0.3651, x3 = 0.6297 | 2.282
x2 = 0.366, x3 = 0.5069 | 8.153
x2 = 0.3714, x3 = 0.5658 | 4.285
x2 = 0.3806, x3 = 0.3659 | 24.18
x2 = 0.3954, x3 = 0.5743 | 2.873
x2 = 0.4166, x3 = 0.5418 | 3.353
x2 = 0.4363, x3 = 0.4778 | 4.956
x2 = 0.4432, x3 = 0.2332 | 33.75
x2 = 0.4437, x3 = 0.5387 | 2.553
x2 = 0.4443, x3 = 0.5002 | 3.63
x2 = 0.4617, x3 = 0.4303 | 5.846
x2 = 0.5079, x3 = 0.2907 | 11.59
x2 = 0.532, x3 = 0.3966 | 3.823
x2 = 0.5377, x3 = 0.4533 | 1.472
x2 = 0.544, x3 = 0.4234 | 2.522
x2 = 0.5558, x3 = 0.186 | 16.16
x2 = 0.5841, x3 = 0.3951 | 2.156
x2 = 0.5878, x3 = 0.3295 | 3.918
x2 = 0.6004, x3 = 0.2361 | 7.378
x2 = 0.6077, x3 = 0.3891 | 1.864
x2 = 0.6374, x3 = 0.3073 | 2.912
x2 = 0.6743, x3 = 0.2932 | 2.278
x2 = 0.6985, x3 = 0.0625 | 11.08
x2 = 0.6991, x3 = 0.1777 | 4.71
x2 = 0.7005, x3 = 0.2845 | 1.923
x2 = 0.7599, x3 = 0.1919 | 2.375
x2 = 0.7937, x3 = 0.0428 | 5.553
x2 = 0.7997, x3 = 0.1184 | 2.964
x2 = 0.847, x3 = 0.1454 | 1.508

CC[n+]1ccn(C)c1.N#C[S-] + CCOS(=O)(=O)[O-].CC[n+]1ccn(C)c1
100 kPa
Details | electrical conductivity [S/m] | viscosity [mPa·s]
298.15 K, x1 = 0.67 | 1.16 | 43.5
308.15 K, x1 = 0.199 | 0.688 | 61.2
313.15 K, x1 = 0.429 | 1.19 | 43.1
318.15 K, x1 = 0.9505 | 3.6 | 15.57
323.15 K, x1 = 0.899 | 3.66 | 13.3
328.15 K, x1 = 0.429 | – | 22.05
333.15 K, x1 = 0.32 | – | 22.93
338.15 K, x1 = 0.899 | – | 9.45
343.15 K, x1 = 0.32 | – | 17.43
343.15 K, x1 = 0.429 | – | 14.75
348.15 K, x1 = 0.9505 | – | 7.21

OCCN(CCO)CCO + CCOS(=O)(=O)[O-].CC[n+]1ccn(C)c1
100 kPa
Details | electrical conductivity [S/m] | viscosity [mPa·s]
293.15 K, x1 = 0.153 | – | 126.2
293.15 K, x1 = 0.617 | – | 159.3
293.15 K, x1 = 0.967 | – | 714
298.15 K, x1 = 0.787 | 0.0457 | 202.4
298.15 K, x1 = 0.929 | 0.0087 | 395
298.15 K, x1 = 0.967 | 0.00372 | 478
298.15 K, x2 = 0.003 | 0.000422 | –
298.15 K, x2 = 0.006 | 0.00076 | –
298.15 K, x2 = 0.019 | 0.00206 | –
303.15 K, x1 = 0.617 | – | 89
303.15 K, x1 = 0.866 | – | 203.4
303.15 K, x1 = 0.929 | – | 274.8
303.15 K, x1 = 0.967 | – | 328
303.15 K, x2 = 0.006 | – | 389
313.15 K, x1 = 0.153 | 0.66 | 50.4
313.15 K, x2 = 0.003 | 0.00117 | –
313.15 K, x2 = 0.006 | 0.00211 | –

CC[NH3+].O=[N+]([O-])[O-] + CC[N+](CC)(CC)CC.O=[N+]([O-])[O-]
Details | viscosity [mPa·s]
338.15 K, 101 kPa, x2 = 0 | 12.5

CC[NH3+].O=[N+]([O-])[O-] + CC[NH2+]CC.O=[N+]([O-])[O-]
Details | electrical conductivity [S/m]
323.15 K, 101 kPa, frequency 0.00293 MHz, x2 = 0 | 4.22

101 kPa, x2 = 0
Details | viscosity [mPa·s]
323.15 K | 17.6
333.15 K | 13.8

CC[NH3+].O=[N+]([O-])[O-] + CC[NH+](CC)CC.O=[N+]([O-])[O-]
101 kPa, frequency 0.00293 MHz, x2 = 0
Details | electrical conductivity [S/m]
293.15 K | 1.93
298.15 K | 2.25
313.15 K | 3.37
323.15 K | 4.22

101 kPa, x2 = 0
Details | viscosity [mPa·s]
293.15 K | 43.5
298.15 K | 36.5
313.15 K | 22.8
323.15 K | 17.6

CC[n+]1ccn(C)c1.N#C[S-] + CC[n+]1ccn(C)c1.CS(=O)(=O)[O-] + O
100 kPa, x1 = 1, x2 = 0
Details | viscosity [mPa·s]
298.15 K | 23.91
323.15 K | 11.7

CC[n+]1ccn(C)c1.N#C[S-] + CC[n+]1ccn(C)c1.N#C[N-]C#N
100 kPa, x1 = 1
Details | electrical conductivity [S/m] | viscosity [mPa·s]
318.15 K | 3.92 | 12.98
328.15 K | – | 10.25
338.15 K | – | 8.3
343.15 K | – | 7.53

CC[S+](CC)CCOCCOCCOCC[S+](CC)CC.O=S(=O)([N-]S(=O)(=O)C(F)(F)F)C(F)(F)F.O=S(=O)([N-]S(=O)(=O)C(F)(F)F)C(F)(F)F + CC[n+]1ccn(C)c1.N#C[N-]C#N + O=S(=O)([N-]S(=O)(=O)C(F)(F)F)C(F)(F)F.[Li+]
100 kPa, x1 = 0.1475, x2 = 0.7497
Details | electrical conductivity [S/m]
298 K | 0.673
303 K | 0.826
313 K | 1.15
323 K | 1.46
333 K | 1.79
343 K | 2.05

CC[S+](CC)CCOCCOCC[S+](CC)CC.O=S(=O)([N-]S(=O)(=O)C(F)(F)F)C(F)(F)F.O=S(=O)([N-]S(=O)(=O)C(F)(F)F)C(F)(F)F + CC[n+]1ccn(C)c1.N#C[N-]C#N + O=S(=O)([N-]S(=O)(=O)C(F)(F)F)C(F)(F)F.[Li+]
100 kPa, x1 = 0.1539, x2 = 0.744
Details | electrical conductivity [S/m]
298 K | 0.615
303 K | 0.691
313 K | 0.953
323 K | 1.22
333 K | 1.57
343 K | 1.93

C[N+]1(CCOCCOCCOCCOCC[N+]2(C)CCCC2)CCCC1.N#C[N-]C#N.N#C[N-]C#N + CC[n+]1ccn(C)c1.N#C[N-]C#N + O=S(=O)([N-]S(=O)(=O)C(F)(F)F)C(F)(F)F.[Li+]
100 kPa, x1 = 0.2352, x2 = 0.6725
Details | electrical conductivity [S/m]
298 K | 0.37
303 K | 0.435
313 K | 0.646
323 K | 0.941
333 K | 1.2
343 K | 1.51
